Measurements reported in ChEMBL document CHEMBL5303304, “EUbOPEN Chemogenomics Library - IncuCyte” (2023).

Legend:
Assay type in all cases: toxicity, cell-based
U2OS = assay: Incucyte cell viability with U2OS; conditions: human, 10 µM, compound concentration 10 uM
HEK-293T = assay: Incucyte cell viability with HEK293T; conditions: human, 10 µM, compound concentration 10 uM
Fibroblast = assay: Incucyte cell viability with human fibroblast; conditions: 10 µM, compound concentration 10 uM
Also: unitless GR value; below 1 slowed growth and below 0 cell loss.

Compound | Growth Rate (U2OS; 0 h, replicate number 1) | Growth Rate (U2OS; 6 h, replicate number 1) | Growth Rate (U2OS; 12 h, replicate number 1) | Growth Rate (U2OS; 18 h, replicate number 1) | Growth Rate (HEK-293T; 0 h, replicate number 1) | Growth Rate (HEK-293T; 6 h, replicate number 2) | Growth Rate (HEK-293T; 12 h, replicate number 2) | Growth Rate (HEK-293T; 18 h, replicate number 2) | Growth Rate (Fibroblast; 0 h, replicate number 2) | Growth Rate (Fibroblast; 12 h, replicate number 2) | Growth Rate (Fibroblast; 24 h, replicate number 2) | Growth Rate (U2OS; 0 h, replicate number 2) | Growth Rate (U2OS; 18 h, replicate number 2) | Growth Rate (U2OS; 24 h, replicate number 2) | Growth Rate (HEK-293T; 6 h, replicate number 1) | Growth Rate (HEK-293T; 12 h, replicate number 1) | Growth Rate (Fibroblast; 6 h, replicate number 1) | Growth Rate (Fibroblast; 6 h, replicate number 2) | Growth Rate (Fibroblast; 18 h, replicate number 1) | Growth Rate (U2OS; 12 h, replicate number 2) | other results
C[C@H](CCC(=O)O)[C@H]1CC[C@H]2[C@@H]3CC[C@@H]4C[C@H](O)CC[C@]4(C)[C@H]3CC[C@]12C [LITHOCHOLIC ACID] | -0.56 | 0.93 | 0.68 | 0.74 | 0.14 | 0.73 | 0.67 | 0.77 | 0.27 | 0.76 | 0.89 |  |  |  |  |  |  |  |  |  | Growth Rate (U2OS; 24 h, replicate number 1): 0.83; Growth Rate (Fibroblast; 18 h, replicate number 2): 0.87
CN1[C@@H](CC(=O)c2ccccc2)CCC[C@H]1C[C@H](O)c1ccccc1.Cl [LOBELINE HYDROCHLORIDE] | 0.28 | 0.83 | 0.92 |  |  | 0.24 |  |  | -0.71 | 0.64 | 0.83 | -0.67 | 1 | 0.87 | 0.43 | 0.62 | 0.48 | 0.28 | 0.91 |  | Growth Rate (Fibroblast; 24 h, replicate number 1): 0.58
CC(C)CC(=O)Nc1cncc(-c2ccc3[nH]nc(-c4nc5c(-c6cccc(F)c6)cncc5[nH]4)c3c2)c1 [LORECIVIVINT] |  | -0.98 | -0.71 | -0.52 |  | -0.98 | -0.78 | -0.58 | -0.25 | -0.68 | -0.13 | -0.42 | -0.47 | -0.42 | -0.99 | -0.89 | -1 | -0.98 |  | -0.62 | Growth Rate (U2OS; 6 h, replicate number 2): -0.82; Growth Rate (U2OS; 24 h, replicate number 1): -0.44; Growth Rate (HEK-293T; 18 h, replicate number 1): -0.67; Growth Rate (HEK-293T; 24 h, replicate number 1): -0.41; Growth Rate (HEK-293T; 24 h, replicate number 2): -0.44; Growth Rate (Fibroblast; 0 h, replicate number 1): -0.18; Growth Rate (Fibroblast; 18 h, replicate number 2): -0.37
Fc1ccc(-c2c3cccc(C(F)(F)F)c3nn2Cc2ccc(F)cc2Cl)cc1 [LXR-623] |  |  |  |  | 0.13 | 0.3 | 0.57 | 0.76 |  | 0.12 | 0.03 | 0.79 | 0.94 | 0.9 | 0.77 | 0.75 | -0.18 | 0.35 | -0.12 | 0.95 | Growth Rate (U2OS; 6 h, replicate number 2): 0.69; Growth Rate (HEK-293T; 0 h, replicate number 2): -0.86; Growth Rate (HEK-293T; 18 h, replicate number 1): 0.77; Growth Rate (HEK-293T; 24 h, replicate number 1): 0.91; Growth Rate (HEK-293T; 24 h, replicate number 2): 0.73; Growth Rate (Fibroblast; 12 h, replicate number 1): -0.03; Growth Rate (Fibroblast; 18 h, replicate number 2): -0.04; Growth Rate (Fibroblast; 24 h, replicate number 1): -0.06
CC(C)(C)C(=O)NCc1ccc(Cl)c(C(=O)Nc2ncc[nH]2)c1 [LY-3031207] | 0.65 |  |  |  | 0.13 |  |  |  | 0.1 | 0.86 |  |  | 0.97 | 0.94 |  |  | 0.85 | -0.3 |  | 0.95 | Growth Rate (HEK-293T; 0 h, replicate number 2): -0.13; Growth Rate (Fibroblast; 24 h, replicate number 1): 0.89
CNC1(C)C2CCC(C2)C1(C)C.Cl (configuration not stated) [MECAMYLAMINE HYDROCHLORIDE] | 0.92 | 1 |  | 0.93 |  | 0.89 | 0.84 | 0.89 | 0.92 | 0.66 |  | -0.76 | 0.64 | 0.73 | 0.95 | 0.74 | 0.44 |  | 0.43 | 0.97 | Growth Rate (U2OS; 6 h, replicate number 2): 0.24; Growth Rate (U2OS; 24 h, replicate number 1): 0.98; Growth Rate (HEK-293T; 24 h, replicate number 2): 0.91; Growth Rate (Fibroblast; 0 h, replicate number 1): 0.75; Growth Rate (Fibroblast; 12 h, replicate number 1): -1
CCCCC(C)(O)C/C=C/[C@H]1[C@H](O)CC(=O)[C@@H]1CCCCCCC(=O)O (some centres not stated) [MISOPROSTOL ACID] |  |  |  |  | -0.42 |  |  |  | -0.92 |  | 0.97 | 0.49 |  |  |  |  |  |  | 0.86 | 0.94 | Growth Rate (HEK-293T; 0 h, replicate number 2): -0.77; Growth Rate (Fibroblast; 0 h, replicate number 1): -1; Growth Rate (Fibroblast; 12 h, replicate number 1): 0.98
